We go through six molecules from paper PMC6733874, “Zebrafish behavioural profiling identifies GABA and serotonin receptor ligands related to sedation and paradoxical excitation” (Nature Communications, 2019).

Entries after “also recorded” stand apart in the source; their conditions may differ.

In data set [1] the test system is zebrafish. It is filed as in vivo. The note with it: for enhanced acoustic startle response (eASR) phenotype, in words: larvae, low-volume acoustic stimulus; for rescue of behavioral phenotypes by pretreatment with the GABAAR antagonist PTX: violet light and eASR phenotypes, in words.
Data set [2] has as its system zebrafish. Nature of the data set: Cortisol detection assay. It is filed as in vivo. The following applies: 7-day old larvae treated 1 h; in words. Here is the method: Cortisol levels were measured in zebrafish. Briefly, 15, 7-day old larvae were treated with the indicated compounds for 1 h. Larvae were anesthetized in ice-cold egg water and then snap-froze in an ethanol/dry ice bath. Larvae were then homogenized in 100 μL of water. Cortisol was extracted from the homogenate with 1 mL of ethyl acetate, the resulting supernatant was collected and the solvent allowed to evaporate. Cortisol was dissolved in 0.2% bovine serum albumin (A7030, Sigma) and frozen at −20 °C. For cortisol ELISA experiments, 96-well plates (VWR International) were treated with cortisol antibody (P01-92-94M-P, EastCoast Bio; […] in PBS) for 16 h at 4 °C, washed, and blocked with 0.1% BSA in PBS. Cortisol samples and cortisol-HRP (P91-92-91H, EastCoast Bio) were incubated at room temperature for 2 h and washed extensively with PBS containing 0.05% Tween-20 (Invitrogen). Detection of HRP was performed using tetramethylbenzidine (TMB: 22166-1, Biomol) and Tetrabutylammonium borohydride (TBABH: 230170-10 G, Sigma). Reaction was stopped using 1 M H2SO4. Absorbance was read at 450 nm in an ELISA plate reader (SpectraMax MS, Molecular Devices).

The test system of data set [3] is human GABAARs (α1β2 and α1β2γ2). It is filed as cell-based. The following applies: for FLIPR Results / Ave Norm FLIPR Score: compound at 20 uM then 5 uM GABA; for FLIPR Results: Positive/Negative; for GABAAR PAM activity in FLIPR, in words: in the presence of GABA; for Ave Norm FLIPR Score: DMSO = 1. From the text: To determine if these compounds targeted human GABAARs, we tested them in a fluorescent imaging plate reader (FLIPR) assay on HEK293 cells transfected with α1β2 and α1β2γ2 human GABAAR subtypes. […]. […] While some of the compounds appeared to function in this assay as negative allosteric modulators (NAMs), reductions in fluorescence were likely due to toxicity-induced cell loss (Fig. 2f, Supplementary Table 5).
We used the FLIPR system (Molecular Devices) to quantify GABA-evoked activity of human GABAARs. We chose a membrane potential dye (Molecular Devices) to measure changes in membrane potentials and stably transfected HEK293 cells that expressed α1, β2 and γ2. Since we observed an increase in GABA-evoked responses when transfected with γ2 transiently, we describe the cells as having a low level of γ-subunit expression, indicating heterogeneity of GABAAR compositions in the cell (α1β2 or α1β2γ2). To assay for direct agonists, fluorescence was subtracted pre- and post compound addition. To assay for PAMs, cells were treated with compound at 20 uM and then with 5 uM GABA.

Another data set relates to adult zebrafish. Nature of the data set: Behavioral responses of adult zebrafish. The note with it: in words.
The subject of data set [4] is zebrafish. Nature of the data set: Optovin-response suppression assay (pain-related). The following applies: in words; relative to concentrations that caused eASRs.
Excerpt: To determine if any of the hit compounds may be analgesic, we used optovin-induced motor activity as a potential analgesia-related assay.
Data set [5] has as its system zebrafish. It is filed as in vivo. The following applies: in words. Here is the method:
Behavioral assays for pERK. Animals were treated with DMSO or drug for one hour then exposed to a low-volume acoustic stimulus every 10 seconds for 10 minutes. Optovin-treated animals were stimulated with violet light for one second every 10 seconds for 10 minutes. Videos were recorded to measure response to the stimulus and quantified by motion index (MI). […]

On to `CCOC(=O)c1cccn1[C@H](C)c1ccccc1` [carboetomidate], for which the phenoscore category result in the data set on zebrafish [1] (average phenoscore at highest scoring treatment) is listed as “intermediate (intermediate phenoscores (0.51 < x < 0.71))”. Further, in the data set on zebrafish [1], the “enhanced acoustic startle response (eASR) phenotype, in words” value was “immobilized zebrafish and caused eASRs”. In the data set on zebrafish [2], the cortisol levels result is reported as “did not”.
As for `CCc1cc2c(=O)c(-c3ccccc3Cl)c(C)oc2cc1OC` [compound 7013338], in the data set on zebrafish [1] ([…], positive/negative), the phenocopy entry is reported as “positive”. In addition, the “rescue of behavioral phenotypes by pretreatment with the GABAAR antagonist PTX” value (shortened to “rescue of behavioral phenotypes”) with zebrafish [1] is listed as “partially rescued”. For the same molecule, in data set [3], the “FLIPR Results” value is listed as “Positive” and the “GABAAR PAM activity in FLIPR, in words” value is reported as “potentiated GABAARs significantly greater than positive controls; also recorded: significantly greater than the positive controls; also recorded: the most effective hit compound in the FLIPR assays; also recorded: activated human GABAARs more than any other hit compound”. Besides, the “violet light response and acoustic startle in adult animals” value in the data set with adult zebrafish was “reducing the violet light response, while increasing acoustic startle”. Also, in the data set with zebrafish [4], the “optovin response (optovin-induced motor activity)” value (shortened to “optovin response”) was “did not suppress the optovin response”.
Turning to `COc1ccc2[nH]c(-c3ccccc3)c(CCN(C)C)c2c1` [BGC 20-761], in the data set on zebrafish [1], the “enhanced acoustic startle response (eASR) phenotype, in words” value is listed as “reproducibly caused eASRs in vivo” and the “rescue of behavioral phenotypes” value is “partially rescued”. For the same molecule, the Phenoscore in the data set with zebrafish [1] (zebrafish, in vivo) was determined as 0.74. In addition, in data set [3], the “Ave Norm FLIPR Score” value came out at 1.189 and the “GABAAR PAM activity in FLIPR, in words” value is “PAM activity was not observed”. Also, the “pERK labeling (neuronal activity)” value with zebrafish [5] is “reduced neuronal activity throughout most of the brain and increased activity in the caudal hindbrain neuron cluster”. Also, the “optovin response” value with zebrafish [4] is recorded as “blocked the optovin response”.
On to `O=S(=O)(Nc1cccc(Br)c1)c1ccc2c(c1)OCCO2` [compound 6225936], for which the “Ave Norm FLIPR Score” value in data set [3] is reported as -14.7. Also, the cortisol levels result in the data set with zebrafish [2] was “None of these compounds reduced cortisol levels”. The “optovin response” value with zebrafish [4] is reported as “only reduced the optovin response at concentrations that also reduced eASRs”.
For `CCOC(=O)c1c(C)nc(-c2ccccc2)nc1NC(=O)Cc1ccccc1` [compound 5951201], in the data set on zebrafish [2], the cortisol levels result is “None of these compounds reduced cortisol levels”.
Turning to `COc1ccc(OC)c(NS(=O)(=O)c2ccc(OC)c(Br)c2)c1` [compound 6029941], in the data set with zebrafish [1], the “rescue of behavioral phenotypes” value is “partially rescued”. Besides, in data set [3], the “Ave Norm FLIPR Score” value is 14.01 and the “FLIPR Results” value was “Positive”. Besides, in the data set on zebrafish [2], the cortisol levels entry was “None of these compounds reduced cortisol levels”.
